Test system: 5α-reductase
Assay: Inhibition of 5α-reductase in vivo (castrated male rats, organ weights and LH/FSH after 10 daily doses)
Parameters: species or system albino rats
Method: The in vivo testing was carried out as follows:
Adult male albino rats weighing 200 g were castrated. Two hours later they received the first of 10 daily dosages of the test substance suspended in 0.5% carboxymethylcellulose, 0.4% Tween 80 and 0.9% benzyl alcohol in physiological sodium chloride solution. Three hours after the last medication on the tenth day of treatment, the animals were decapitated, the blood from the body was collected, and the seminal vesicles, the ventral prostate and the Levator ani muscle were removed and weighed. The results are given as ng of NIAMDD-RP-1/ml.
VP: Ventral prostrate, SV: Seminal vesicle, MLA: Levator ani muscle
LH: Luteinizing hormone, FSH: Follicle stimulating hormone

[1] = A sc 15 mg/kg + TP sc 0.5 mg/kg
[2] = L sc 15 mg/kg + TP sc 0.5 mg/kg
[3] = T sc 0.5 mg/kg alone, experiment with F
[4] = T sc 0.5 mg/kg alone, experiment with L po
[5] = Testosterone sc 0.5 mg/kg alone, experiment with D
[6] = TP 0.5 mg/kg alone, experiment with A
[7] = TP sc 0.5 mg/kg alone, experiment with L sc

C[C@]12CC[C@H]3[C@@H](CCC4=CC(=O)CC[C@@]43C)[C@@H]1CCC[C@@H]2C(=O)O [Test substance A, 3-oxo-D-homo-androst-4-ene-17aα-carboxylic acid]
FSH (follicle stimulating hormone) [1]: 1268 ± 125 ng/mL
LH (luteinizing hormone) [1]: 283 ± 41 ng/mL
MLA (Levator ani muscle weight) [1]: 118 ± 8 mg
SV (seminal vesicle weight) [1]: 157 ± 15 mg
VP (ventral prostate weight) [1]: 116 ± 11 mg

COC(=O)C1=CCC[C@H]2[C@@H]3CCC4=CC(=O)CC[C@]4(C)[C@H]3CC[C@]12C [Test substance L, methyl 3-oxo-D-homo-androsta-4,17-diene-17a-carboxylate]
MLA (Levator ani muscle weight) (L po 30 mg/kg + T sc 0.5 mg/kg): 88 ± 17 mg
SV (seminal vesicle weight) (L po 30 mg/kg + T sc 0.5 mg/kg): 68 ± 13 mg
VP (ventral prostate weight) (L po 30 mg/kg + T sc 0.5 mg/kg): 81 ± 16 mg
FSH (follicle stimulating hormone) [2]: 1099 ± 94 ng/mL
LH (luteinizing hormone) [2]: 163 ± 30 ng/mL
MLA (Levator ani muscle weight) [2]: 67 ± 6 mg
SV (seminal vesicle weight) [2]: 52 ± 1 mg
VP (ventral prostate weight) [2]: 80 ± 6 mg

COC(=O)[C@H]1CCC[C@H]2[C@@H]3CCC4=C(Cl)C(=O)CC[C@]4(C)[C@H]3CC[C@]12C [Test substance D, methyl 4-chloro-3-oxo-D-homo-androst-4-ene-17aβ-carboxylate]
FSH (follicle stimulating hormone) (D sc 10 mg/kg + T sc 0.5 mg/kg): 1325 ± 93 ng/mL
LH (luteinizing hormone) (D sc 10 mg/kg + T sc 0.5 mg/kg): 244 ± 45 ng/mL
MLA (Levator ani muscle weight) (D sc 10 mg/kg + T sc 0.5 mg/kg): 83 ± 6 mg
SV (seminal vesicle weight) (D sc 10 mg/kg + T sc 0.5 mg/kg): 51 ± 9 mg
VP (ventral prostate weight) (D sc 10 mg/kg + T sc 0.5 mg/kg): 95 ± 10 mg

C[C@]12CCC(=O)C=C1CC[C@@H]1[C@@H]2CC[C@@]2(C)[C@H]1CC=C[C@@]21CCCO1 [Test substance F, 4,5-dihydrospiro[furan-2(3H),17'a(β1)-D-homo-androsta-4,16-dien]-3'-one]
LH (luteinizing hormone) (F sc 10 mg/kg + T sc 0.5 mg/kg): 88 ± 15 ng/mL
MLA (Levator ani muscle weight) (F sc 10 mg/kg + T sc 0.5 mg/kg): 105 ± 6 mg
SV (seminal vesicle weight) (F sc 10 mg/kg + T sc 0.5 mg/kg): 66 ± 4 mg
VP (ventral prostate weight) (F sc 10 mg/kg + T sc 0.5 mg/kg): 93 ± 10 mg

C[C@]12CC[C@H]3[C@@H](CCC4=CC(=O)CC[C@@]43C)[C@@H]1CC[C@@H]2O [T, Testosterone]
LH (luteinizing hormone) [3]: 96 ± 37 ng/mL
MLA (Levator ani muscle weight) [3]: 126 ± 7 mg
SV (seminal vesicle weight) [3]: 85 ± 7 mg
VP (ventral prostate weight) [3]: 128 ± 12 mg
MLA (Levator ani muscle weight) [4]: 109 ± 8 mg
SV (seminal vesicle weight) [4]: 92 ± 13 mg
VP (ventral prostate weight) [4]: 96 ± 10 mg
FSH (follicle stimulating hormone) [5]: 1206 ± 114 ng/mL
LH (luteinizing hormone) [5]: 104 ± 25 ng/mL
MLA (Levator ani muscle weight) [5]: 108 ± 5 mg
SV (seminal vesicle weight) [5]: 65 ± 5 mg
VP (ventral prostate weight) [5]: 112 ± 10 mg

CCC(=O)O[C@H]1CC[C@H]2[C@@H]3CCC4=CC(=O)CC[C@]4(C)[C@H]3CC[C@]12C [TP, Testosterone propionate]
FSH (follicle stimulating hormone) [6]: 783 ± 167 ng/mL
LH (luteinizing hormone) [6]: 101 ± 36 ng/mL
MLA (Levator ani muscle weight) [6]: 137 ± 7 mg
SV (seminal vesicle weight) [6]: 215 ± 13 mg
VP (ventral prostate weight) [6]: 160 ± 18 mg
FSH (follicle stimulating hormone) [7]: 915 ± 37 ng/mL
LH (luteinizing hormone) [7]: 121 ± 12 ng/mL
MLA (Levator ani muscle weight) [7]: 75 ± 4 mg
SV (seminal vesicle weight) [7]: 69 ± 3 mg
VP (ventral prostate weight) [7]: 108 ± 6 mg

From patent publication US4361578A, “D-Homosteroids” (priority 1980, dated 1982)
